# Columns and labels:
# [1] = test system: Male C57BL6 mice; experiment: LPS-induced renal neutrophil infiltration; type: in vivo; details: 24 h after LPS injection
# Method: (§1) Male C57BL6 mice, 9-10 weeks old, were injected i.p. with 0.2 mg E. coli LPS per 25 g body weight. The mice were injected with compound AA34 (50 mg/kg, 50 μL) or the vehicle (50 μL) at the time of lipopolysaccharide (LPS) injection, 8 after LPS injection, and 16 hours after LPS injection. The mice were sacrificed 24 h after the LPS injection. The saline-injected mice were studied in parallel as controls.
# [2] = test system: TNFR1; experiment: RT-PCR of kidney homogenate after LPS: TNFR1; type: in vivo, mice; details: versus vehicle
# Method: as §1, with “controls. Phosphatase inhibition by compound AA34 reduced renal mRNA expression of various mediators of inflammation and coagulation, as shown in FIG. 8. The kidneys of the mice were analyzed for RNA level expression of various inflammatory mediators. […] TNFR1, PAI-1, and tissue factor were expressed mainly in the endothelium, the site of Tie2 expression.” for “controls.”
# [3] = test system: human subjects; experiment: Assessment of renal function indices (UACR) in subjects treated with compound AA34; type: in vivo; details: for % Change in Geometric Mean (UACR): baseline to end of treatment (three months), patients with albuminuria at baseline
# Method: The human subjects treated with compound AA34 were administered 15 mg of the compound subcutaneously twice a day for three months. One group of subjects received the compound and ranibizumab (RBZ; 0.3 mg monthly via intraocular injection), while the other group received only the compound with a sham intraocular injection. The subjects in the placebo arm received a placebo subcutaneously twice a day along with ranibizumab. […] Within the subjects that had albuminuria, 30% had microalbuminuria (>30 mg/g and <300 mg/g UACR) and 20% had macroalbuminuria (>300 mg/g UACR).
# The results of the study are shown in FIG. 2 and TABLE 2 as the % change from baseline to end of treatment (three months) in geometric mean +95% confidence interval in the patients with albuminuria at baseline.
# [4] = test system: Tie2; experiment: Immunoprecipitation of kidney homogenate for Tie2 phosphorylation after LPS; type: in vivo, mice
# Method: as §1, with “controls. Immunoprecipitation of kidney homogenate was performed to analyze the extent of Tie2 phosphorylation in the drug versus vehicle groups. Immunoprecipitation of kidney homogenate was completed using anti-Tie2 Ab, which was probed using anti-phosphotyrosine Ab. Total Tie2 levels were equal in the drug-treated and vehicle-treated groups after being injected with LPS.” for “controls.”
# [5] = test system: Male C57BL6 mice; experiment: Renal apoptosis after LPS (DNA laddering, TUNEL staining); type: in vivo; details: versus vehicle
# Method: as §1, with “controls. Apoptosis was detected in kidney homogenate using DNA laddering, which is the result of apoptotic DNA fragmentation. […] Terminal deoxynucleotidyl transferase dUTP nick end labeling (TUNEL) staining was used to visualize the presence of apoptotic nuclei.” for “controls.”
# [6] = test system: Male C57BL6 mice; experiment: Endotoxin (LPS)-induced acute kidney injury: serum BUN and kidney histology; type: in vivo
# Method: as §1, with “controls. Serum samples from the mice were analyzed for BUN as a marker of kidney function.” for “controls.”
# [7] = test system: inducible nitric oxide synthase (iNOS); experiment: RT-PCR of kidney homogenate after LPS: iNOS; type: in vivo, mice; details: versus vehicle
# Method: as §1, with “controls. Phosphatase inhibition by compound AA34 reduced renal mRNA expression of various mediators of inflammation and coagulation, as shown in FIG. 8. The kidneys of the mice were analyzed for RNA level expression of various inflammatory mediators. […] TNFR1, PAI-1, and tissue factor were expressed mainly in the endothelium, the site of Tie2 expression.” for “controls.”
# [8] = test system: plasminogen activator inhibitor-1 (PAI-1); experiment: RT-PCR of kidney homogenate after LPS: PAI-1; type: in vivo, mice; details: versus vehicle
# Method: as §1, with “controls. Phosphatase inhibition by compound AA34 reduced renal mRNA expression of various mediators of inflammation and coagulation, as shown in FIG. 8. The kidneys of the mice were analyzed for RNA level expression of various inflammatory mediators. […] TNFR1, PAI-1, and tissue factor were expressed mainly in the endothelium, the site of Tie2 expression.” for “controls.”
# [9] = test system: Male C57BL6 mice; experiment: Renal vascular leak after LPS (fluorescent dextrans, tomato lectin); type: in vivo; details: 24 h after LPS
# Method: as §1, with “controls. Mice were injected with LPS and drug (compound AA34) versus the vehicle (LPS only). 2 min prior to sacrificing the animals at 24 h, the mice were injected with 70 kDa and 500 kDa fluorescent fixable dextrans by intravenous catheter.” for “controls.”
# [10] = test system: tissue factor; experiment: RT-PCR of kidney homogenate after LPS: tissue factor; type: in vivo, mice; details: versus vehicle
# Method: as §1, with “controls. Phosphatase inhibition by compound AA34 reduced renal mRNA expression of various mediators of inflammation and coagulation, as shown in FIG. 8. The kidneys of the mice were analyzed for RNA level expression of various inflammatory mediators. […] TNFR1, PAI-1, and tissue factor were expressed mainly in the endothelium, the site of Tie2 expression.” for “controls.”
# [11] = Baseline UACR 30-300 mg/g (n 31)
smiles,measurement,setting,value
COC(=O)N[C@@H](Cc1ccccc1)C(=O)N[C@@H](Cc1ccc(NS(=O)(=O)O)cc1)c1csc(-c2cccs2)n1 [AA34],reduction of renal neutrophil infiltration,[1],over 50%
same,reduction of renal mRNA expression of TNFR1,[2],about 6 fold
same,shift analysis: subjects with UACR 30-300 at Month 3/EOT,[3]; [11],25 (81%)
same,shift analysis: subjects with UACR <30 at Month 3/EOT,[3]; [11],4 (13%)
same,shift analysis: subjects with UACR >300 at Month 3/EOT,[3]; [11],2 (6%)
same,shift analysis: subjects with UACR 30-300 at Month 3/EOT,[3]; Baseline UACR <30 mg/g (n 43),2 (5%)
same,shift analysis: subjects with UACR <30 at Month 3/EOT,[3]; Baseline UACR <30 mg/g (n 43),41 (95%)
same,shift analysis: subjects with UACR >300 at Month 3/EOT,[3]; Baseline UACR <30 mg/g (n 43),0
same,shift analysis: subjects with UACR 30-300 at Month 3/EOT,[3]; Baseline UACR >300 mg/g (n 18),1 (6%)
same,shift analysis: subjects with UACR <30 at Month 3/EOT,[3]; Baseline UACR >300 mg/g (n 18),1 (6%)
same,shift analysis: subjects with UACR >300 at Month 3/EOT,[3]; Baseline UACR >300 mg/g (n 18),16 (89%)
same,% Change in Geometric Mean (UACR),[3]; 15 mg subcutaneously twice a day,−17.7%
same,% Change in Geometric Mean (UACR),"[3]; 15 mg subcutaneously twice a day, listed as All Compound",−21.2%
same,reduction in the UACR compared to patients receiving placebo,"[3]; three months, 15 mg subcutaneously twice a day",~20%
same,tyrosine phosphorylated Tie2 in kidney homogenate,"[4]; LPS+Compound AA34 versus LPS+vehicle, 8 h after the last dose",increased levels
same,Total Tie2 levels in kidney homogenate,[4]; drug-treated versus vehicle-treated groups after LPS,equal
same,DNA laddering (apoptosis) in kidney homogenate,[5],less DNA laddering
same,apoptosis (TUNEL staining of apoptotic nuclei),[5],less apoptosis
same,morphologic tubular injury (histology),"[6]; 24 h after LPS injection, drug versus vehicle",less morphologic tubular injury
same,LPS-induced rise in BUN,"[6]; serum, 24 h after LPS, 50 mg/kg at 0, 8 and 16 hours, versus vehicle, p=0.002",statistically reduced
same,reduction of renal mRNA expression of iNOS,[7],about 1.5 fold
same,reduction of renal mRNA expression of PAI-1,[8],about 5 fold
same,LPS-induced extrusion of dye beyond the small peritubular capillaries (vascular leak),[9]; 70 kDa and 500 kDa fluorescent fixable dextrans,markedly reduced
same,tomato lectin staining of peritubular capillaries (vascular integrity),[9],relatively preserved
same,reduction of renal mRNA expression of tissue factor,[10],about 0.8 fold

# Reference: patent US20190262321A1, “METHODS OF TREATING DIABETIC NEPHROPATHY USING HPTPB INHIBITORS” (Aerpio Therapeutics, Inc., priority 2018, published 2019)
